Measurements published in PubChem BioAssay AID2060502 (Molecular Pharmacology Branch, DTP, NCI, 2025).

Test system: 885724-159-R-J1-PDC complex spheroid viability
Assay: Anticancer human tumor 885724-159-R-J1-PDC patient-derived pancreatic adenocarcinoma cell line growth inhibition [GQUAD]
Settings: for IC50: curve of first compound; for viability, T/C: stronger effect = lower value
Procedure, shortened: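 Multi-cell-type spheroids of tumor cells with HUVEC and mesenchymal stem cells, treated with drug combinations. Concentrations descend in half-log steps from near clinical Cmax, or from 10 microM where Cmax is unknown; viability read-out.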

[1] = second compound 0.0316 µM, first compound 0.0316 µM
[2] = second compound 0.0316 µM, first compound 0.1 µM
[3] = second compound 0.0316 µM, first compound 0.316 µM
[4] = second compound 0.0316 µM, first compound 1 µM
[5] = second compound 0.0316 µM, first compound 3.16 µM
[6] = second compound 0.0316 µM, first compound 10 µM
[7] = second compound 0.1 µM, first compound 0.0316 µM
[8] = second compound 0.1 µM, first compound 0.1 µM
[9] = second compound 0.1 µM, first compound 0.316 µM
[10] = second compound 0.1 µM, first compound 1 µM
[11] = second compound 0.1 µM, first compound 3.16 µM
[12] = second compound 0.1 µM, first compound 10 µM
[13] = second compound 0.316 µM, first compound 0.0316 µM
[14] = second compound 0.316 µM, first compound 0.1 µM
[15] = second compound 0.316 µM, first compound 0.316 µM
[16] = second compound 0.316 µM, first compound 1 µM
[17] = second compound 0.316 µM, first compound 3.16 µM
[18] = second compound 0.316 µM, first compound 10 µM
[19] = second compound 1 µM, first compound 0.0316 µM
[20] = second compound 1 µM, first compound 0.1 µM
[21] = second compound 1 µM, first compound 0.316 µM
[22] = second compound 1 µM, first compound 1 µM
[23] = second compound 1 µM, first compound 3.16 µM
[24] = second compound 1 µM, first compound 10 µM
[25] = second compound 3.16 µM, first compound 0.0316 µM
[26] = second compound 3.16 µM, first compound 0.1 µM
[27] = second compound 3.16 µM, first compound 0.316 µM
[28] = second compound 3.16 µM, first compound 1 µM
[29] = second compound 3.16 µM, first compound 3.16 µM
[30] = second compound 3.16 µM, first compound 10 µM
[31] = second compound 10 µM, first compound 0.0316 µM
[32] = second compound 10 µM, first compound 0.1 µM
[33] = second compound 10 µM, first compound 0.316 µM
[34] = second compound 10 µM, first compound 1 µM
[35] = second compound 10 µM, first compound 3.16 µM
[36] = second compound 10 µM, first compound 10 µM
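Note: spheroids exposed to agents for seven days before readout.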
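Throughout, for viability, T/C: percent of vehicle control viability where 100% = DMSO wells.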

C#Cc1c(F)ccc2cc(O)cc(-c3ncc4c(N5CC6CCC(C5)N6)nc(OCC56CCCN5CC(F)C6)nc4c3F)c12 (stereo unspecified) + CN(C)c1ccc(Nc2c3ccc(NC(=O)CCN4CCCC4)cc3nc3cc(NC(=O)CCN4CCCC4)ccc23)cc1
IC50 (second compound 0.0316 µM): 4.17 µM | IC50 (second compound 0.1 µM): 4.29 µM | IC50 (second compound 0.316 µM): 5.21 µM | IC50 (second compound 1 µM): 4.33 µM | IC50 (second compound 3.16 µM): 2.94 µM | IC50 (second compound 10 µM): 2.13 µM | viability, T/C [1]: 92.1% | viability, T/C [2]: 112% | viability, T/C [3]: 94.8% | viability, T/C [4]: 86.9% | viability, T/C [5]: 58.8% | viability, T/C [6]: 22.8% | viability, T/C [7]: 114% | viability, T/C [8]: 100% | viability, T/C [9]: 98.3% | viability, T/C [10]: 86.2% | viability, T/C [11]: 56.7% | viability, T/C [12]: 26.1% | viability, T/C [13]: 95% | viability, T/C [14]: 100% | viability, T/C [15]: 96.6% | viability, T/C [16]: 79.2% | viability, T/C [17]: 68.1% | viability, T/C [18]: 28.7% | viability, T/C [19]: 89.4% | viability, T/C [20]: 72.7% | viability, T/C [21]: 87.8% | viability, T/C [22]: 79.3% | viability, T/C [23]: 59.5% | viability, T/C [24]: 24.6% | viability, T/C [25]: 78.3% | viability, T/C [26]: 68.1% | viability, T/C [27]: 69.5% | viability, T/C [28]: 60.9% | viability, T/C [29]: 51.4% | viability, T/C [30]: 24.7% | viability, T/C [31]: 64.8% | viability, T/C [32]: 68.7% | viability, T/C [33]: 58% | viability, T/C [34]: 84.2% | viability, T/C [35]: 40.2% | viability, T/C [36]: 2.3%

C=CCn1c(=O)c2cnc(Nc3ccc(N4CCN(C)CC4)cc3)nc2n1-c1cccc(C(C)(C)O)n1 + CN(C)c1ccc(Nc2c3ccc(NC(=O)CCN4CCCC4)cc3nc3cc(NC(=O)CCN4CCCC4)ccc23)cc1
IC50 (second compound 0.0316 µM): > 10 µM | IC50 (second compound 0.1 µM): > 10 µM | IC50 (second compound 0.316 µM): > 10 µM | IC50 (second compound 1 µM): 3.83 µM | IC50 (second compound 3.16 µM): 0.714 µM | IC50 (second compound 10 µM): 1.34 µM | viability, T/C [1]: 99% | viability, T/C [2]: 86.2% | viability, T/C [3]: 74.4% | viability, T/C [4]: 81.6% | viability, T/C [5]: 72.4% | viability, T/C [6]: 73% | viability, T/C [7]: 95.4% | viability, T/C [8]: 83.6% | viability, T/C [9]: 79.3% | viability, T/C [10]: 73.7% | viability, T/C [11]: 71.3% | viability, T/C [12]: 72.5% | viability, T/C [13]: 92% | viability, T/C [14]: 81.8% | viability, T/C [15]: 69.5% | viability, T/C [16]: 63.4% | viability, T/C [17]: 57.7% | viability, T/C [18]: 52.3% | viability, T/C [19]: 83.5% | viability, T/C [20]: 66.7% | viability, T/C [21]: 60.4% | viability, T/C [22]: 44.1% | viability, T/C [23]: 57.2% | viability, T/C [24]: 47.3% | viability, T/C [25]: 82.6% | viability, T/C [26]: 60.7% | viability, T/C [27]: 61.2% | viability, T/C [28]: 40.7% | viability, T/C [29]: 52.1% | viability, T/C [30]: 38.7% | viability, T/C [31]: 68.3% | viability, T/C [32]: 69.5% | viability, T/C [33]: 56.7% | viability, T/C [34]: 50.4% | viability, T/C [35]: 45.7% | viability, T/C [36]: 19.6%

CC(=O)O[C@H]1C(=O)[C@@]2(C)[C@H]([C@H](OC(=O)c3ccccc3)[C@]3(O)C[C@H](OC(=O)[C@H](O)[C@@H](NC(=O)c4ccccc4)c4ccccc4)C(C)=C1C3(C)C)[C@]1(OC(C)=O)CO[C@@H]1C[C@@H]2O + CN(C)c1ccc(Nc2c3ccc(NC(=O)CCN4CCCC4)cc3nc3cc(NC(=O)CCN4CCCC4)ccc23)cc1
IC50 (second compound 0.0316 µM): > 10 µM | IC50 (second compound 0.1 µM): > 10 µM | IC50 (second compound 0.316 µM): > 10 µM | IC50 (second compound 1 µM): > 10 µM | IC50 (second compound 3.16 µM): > 10 µM | IC50 (second compound 10 µM): > 10 µM | viability, T/C [1]: 92.9% | viability, T/C [2]: 82.8% | viability, T/C [3]: 81.8% | viability, T/C [4]: 85.3% | viability, T/C [5]: 88% | viability, T/C [6]: 98.7% | viability, T/C [7]: 94% | viability, T/C [8]: 92.7% | viability, T/C [9]: 82.3% | viability, T/C [10]: 89.8% | viability, T/C [11]: 83.9% | viability, T/C [12]: 96.8% | viability, T/C [13]: 81.7% | viability, T/C [14]: 82.4% | viability, T/C [15]: 83.8% | viability, T/C [16]: 76.7% | viability, T/C [17]: 85.5% | viability, T/C [18]: 81.1% | viability, T/C [19]: 77.4% | viability, T/C [20]: 64.3% | viability, T/C [21]: 78.6% | viability, T/C [22]: 68% | viability, T/C [23]: 84.4% | viability, T/C [24]: 82.5% | viability, T/C [25]: 77.9% | viability, T/C [26]: 56.1% | viability, T/C [27]: 63.6% | viability, T/C [28]: 66.2% | viability, T/C [29]: 66.6% | viability, T/C [30]: 72.1% | viability, T/C [31]: 66.4% | viability, T/C [32]: 69.6% | viability, T/C [33]: 65.4% | viability, T/C [34]: 67.4% | viability, T/C [35]: 69.6% | viability, T/C [36]: 67.7%
